The target of data set [1] is T1, β1 adrenoreceptor (guinea-pig atria) (Cavia porcellus, UniProt H0W3H1).
T1 construct: the atria is dissected from the ventricles; from tissue; host or cells: isolated guinea-pig atria (organ bath)
Nature of the data set: Isoprenaline dose-response in isolated guinea-pig atria (pA2). The conditions noted are these: isolated guinea-pig atria, antagonism of isoprenaline, 37° C.; for Kb: read-out: Guinea Pig, pA2 Atria, B1 (converted). An excerpt:
(§1) Tissue preparation: The animals are killed by a rapid blow to the head followed by cervical dislocation. The chest is opened and the heart and trachea removed and placed in carbonated Krebs-Ringer-Bicarbonate solution (Krebs). Blood is carefully massaged from the chambers of the heart (see L. H. Tung, G. P. Jackman, B. Campbell, S. Louis, D. Iakovidis & W J Louis, J. Cardiovasc. Pharmacol, 21, (2), 484–488, 1993).
(§2) All extraneous tissue is carefully dissected from the heart, and the atria is dissected from the ventricles. A suture with a loop is tied to each atrium and used to suspend the tissue from an organ bath rod. The other loop is attached to a force transducer loaded with 1 g force. The atria are then maintained in the bath with oxygenated (5% Carbogen) Krebs at 37° C. with changes of Krebs at 10 minute intervals for 50 min. Isoprenaline dose response curves are then measured by addition of isoprenaline in increasing doses from 10^−11 M until a plateau in the response is observed (ca 10^−5.5 M). Doses are increased at two minute intervals and maximum force of contraction and heart rate are recorded. At the end of the dose response curve, the organ bath is flushed with fresh Krebs and washed three times every 10 minutes for 50 minutes. The dose of test drug is then added to the organ bath and allowed to equilibrate for 10 minutes. The isoprenaline does-response curve is then repeated. After washing the atria with Krebs for a further 50 minutes as before, the control does-response curve is repeated in the absence of drug.
(§3) The data is used to calculate the pA2 values against atria and trachea (see Mackay, J. Pharm. Pharmacol., 30, 312–313, 1978). […] The ratio of the values indicates the selectivity of each compound.

The test system of data set [2] is β1 adrenoreceptor (guinea-pig atria). The data set is described as above. The conditions noted are these: β1 (atria) versus β2 (trachea), from the pA2 values.
From the text: as §1, §2, §3

Data set [3] concerns the target T2, β2 adrenoreceptor (guinea-pig trachea) (Cavia porcellus, UniProt Q8K4Z4).
T2 construct: five rings 1–2 mm in width are cut from the trachea; from tissue; host or cells: isolated guinea-pig tracheal rings (organ bath)
Nature of the data set: Isoprenaline relaxation of carbachol-contracted isolated guinea-pig trachea (pA2). The conditions noted are these: isolated guinea-pig tracheal rings, carbachol 10^-6 M contraction, 37° C.; for Kb: read-out: Guinea Pig, pA2 Trachea, B2 (converted).
From the text: as §1
All extraneous tissue is dissected away and five rings 1–2 mm in width are cut from the trachea and mounted in sequence on loose loops. The rings are suspended from an isometric transducer set at a resting force of 1.0 g. The rings are then incubated in an organ bath at 37° C. in oxygenated (5% Carbogen) Krebs with 3 changes of Krebs every 10 min for 50 min. Carbachol 10^−6 M is then added to the bath to induce a contraction. Once the contractile force is stable, relaxation is induced by addition of increasing doses of isoprenaline (10^−8 to 10^−5 M) to produce the control dose-response curve. The tissue is then washed in three changes of Krebs every 10 min for 50 min before addition of the drug. After 10 minutes incubation carbachol is added once more and a fresh dose-response to isoprenaline measured. After a further wash of 50 min the control curve is repeated.
as §3

Data set [4] can be described thus: Duration of beta blockade after intravenous infusion in conscious rats (heart rate response to isoprenaline). The data set is classed as in vivo, Sprague-Dawley rats. The conditions noted are these: Sprague-Dawley, rat, plasma, iv; conscious male rats, after stopping i.v. infusion; time for inhibition of isoprenaline heart rate response to fall by 50%; read-out: Estimated Plasma Half Life. The method, then:
(§4) Healthy male Sprague-Dawley rats were prepared under anaesthesia with indwelling catheters in the carotid artery and jugular vein and allowed to recover for at least 24 h. On the day of the experiment, the arterial catheter was attached to a flexible swivel and then to a pressure transducer for the continuous recording of heart rate and blood pressure. The venous catheters were attached to an infusion pump for drug administration or to a syringe for bolus injections of isoprenaline ([…]). The catheters were suspended out of the animal's way and the rat was allowed to move freely in a small covered enclosure isolated from outside disturbance. When the BP and HR were stable isoprenaline boluses were given at intervals of 10 minutes until the maximum responses in HR were reproducible (±10%). The doses were repeated for at least 40 minutes and the last 5 readings were considered to constitute the baseline response. The doses were continued at the same interval throughtout the test period of a further 150 minutes. Approximately 3.5 minutes before the next dose of isoprenaline the infusion of the test compound was started, to allow for dead volume in the infusion line, and continued for a further 33.5 minutes.
(§5) Rats were used for more than one experiment if their catheters remained patent with daily flushing with heparinised saline, but at least 24 hours separated each experiment.
(§6) Thus rats with the left carotid artery and left jugular vein cannulated can be studied in the conscious state. This allows continuous recording of heart rate and blood pressure before and after intravenous infusions of beta blocking drugs in selected doses. The duration of beta blockade following cessation of an intravenous infusion of a beta blocking drug can be followed by studying the time taken for the increase in heart rate produced by a standard dose of isoprenaline to return to control values following cessation of the beta blocking drug infusion. The maximum recorded inhibition of the heart rate response to isoprenaline during the infusion of the test drug is estimated, and the pharmacodynamic half-life is the time taken for this inhibition to fall by 50% following the cessation of infusion of the drug.
(§7) The half-life of action of the compounds in the systemic circulation as determined as described above in vivo in rats is indicated in Table 3.

For data set [5], the system named is heart rate response to isoprenaline. Nature of the data set: Duration of beta blockade after intravenous infusion in conscious rats (heart rate response to isoprenaline). The conditions noted are these: conscious male rats, after stopping i.v. infusion; time for inhibition of isoprenaline heart rate response to fall by 50%. Type of data set: in vivo, Sprague-Dawley rats. The method, then:
as §4, §5, §6, §7

T1 sequence (H0W3H1 1-470): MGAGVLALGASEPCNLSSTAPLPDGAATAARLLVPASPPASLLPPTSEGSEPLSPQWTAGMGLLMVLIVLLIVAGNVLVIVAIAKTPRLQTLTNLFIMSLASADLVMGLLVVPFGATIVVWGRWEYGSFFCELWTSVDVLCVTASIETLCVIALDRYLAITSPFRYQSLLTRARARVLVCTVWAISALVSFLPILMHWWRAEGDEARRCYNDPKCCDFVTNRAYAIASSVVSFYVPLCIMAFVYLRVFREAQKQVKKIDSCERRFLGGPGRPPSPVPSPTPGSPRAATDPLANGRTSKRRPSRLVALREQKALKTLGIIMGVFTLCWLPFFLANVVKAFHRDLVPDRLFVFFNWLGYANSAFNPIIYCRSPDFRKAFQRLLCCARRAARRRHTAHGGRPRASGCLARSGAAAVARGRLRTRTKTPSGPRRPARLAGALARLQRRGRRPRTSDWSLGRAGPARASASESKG
T2 sequence (Q8K4Z4 whole entry): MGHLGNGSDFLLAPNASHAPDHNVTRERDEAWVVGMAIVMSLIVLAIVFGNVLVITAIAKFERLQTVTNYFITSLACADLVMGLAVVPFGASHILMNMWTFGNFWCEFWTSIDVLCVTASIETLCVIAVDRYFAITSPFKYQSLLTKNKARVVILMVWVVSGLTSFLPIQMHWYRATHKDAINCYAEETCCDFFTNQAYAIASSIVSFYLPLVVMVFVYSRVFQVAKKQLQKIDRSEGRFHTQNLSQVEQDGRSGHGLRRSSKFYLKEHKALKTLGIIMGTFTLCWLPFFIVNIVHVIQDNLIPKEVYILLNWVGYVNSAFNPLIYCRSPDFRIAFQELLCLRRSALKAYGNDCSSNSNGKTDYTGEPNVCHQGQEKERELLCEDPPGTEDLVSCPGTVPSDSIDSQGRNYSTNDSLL

With `CCOCCOc1ccc(OCC(O)CNCCc2ccc(OC)c(OC)c2)cc1` (racemic) [Example 7, 1-(4-(2-ethoxyethoxy)phenoxy)-2-hydroxy-3-(2-(3,4-dimethoxyphenyl)ethylamino)propane], the melting point (commonly the temperature, or range, at which the solid turns liquid) is 140 to 143 °C. Besides, in data set [1], the Kb is 63.1 nM. For the same molecule, the Selectivity in data set [2] is on record as greater than 501. Besides, the Kb in data set [3] was greater than 31.6 µM. In addition, in data set [4], the half-life (usually how long it takes for the measured level to halve) was roughly 10 min.

Molecule `COc1ccc(CCNCC(O)COc2ccc(OCCOCC3CC3)cc2C#N)cc1OC` (racemic) [Example 4, 1-(2-cyano-4-(2-cyclopropylmethoxyethoxy)phenoxy)-2-hydroxy-3-(2-(3,4-dimethoxyphenyl)ethylamino)propane] came in with a melting point of 84 to 86 °C. For the same molecule, the Kb in data set [1] was 50.1 nM. The Selectivity in data set [2] was found to be 794. Moreover, the Kb in data set [3] is 39.8 µM. Also, the half-life in data set [4] was roughly 15 min.

Regarding `COc1ccc(OCCNCC(O)COc2ccc(OCCOCC(C)C)cc2C#N)cc1` (racemic) [Example 2, 1-(2-cyano-4-(2-(2-methylpropoxy)ethoxy)phenoxy)-2-hydroxy-3-(2-(4-methoxyphenoxy)ethylamino)propane], the melting point was 69 to 71 °C. The Kb in data set [1] was 39.8 nM. The Selectivity in data set [2] was determined as 1000. The Kb in data set [3] was 39.8 µM. In data set [4], the half-life was roughly 17 min.

With `CCOCCOc1ccc(OC[C@@H](O)CNCCc2ccc(OC)c(OC)c2)cc1` [Example 1, S(−)-1-(4-(2-ethoxyethoxy)phenoxy)-2-hydroxy-3-(2-(3,4-dimethoxyphenyl)ethylamino)propane], the “Guinea Pig, pA2 Atria, B1” value in data set [1] is on record as 7.7. In addition, the Selectivity in data set [2] is recorded as 2512. Also, in data set [3], the “Guinea Pig, pA2 Trachea, B2” value turned out to be 4.3. For the same molecule, in data set [5], the “Estimated Plasma Half Life” value was 10 to 20 min.

As for `COCCOc1ccc(OCC(O)CNCCOc2ccc(OC)cc2)cc1` (racemic) [Example 5, 1-(4-(2-methoxyethoxy)phenoxy)-2-hydroxy-3-(2-(4-methoxyphenoxy)ethylamino)propane], the melting point was 113 to 115 °C. Besides, in data set [1], the Kb was 100 nM. In data set [2], this molecule returned a Selectivity of 501. Also, the Kb in data set [3] was 50.1 µM. Moreover, the half-life in data set [4] is 10 to 20 min.

Source of the values: US7129379B2, “3-amino-propoxphenyl derivatives (l)” (William John Louis, Austin and Repatriation Medical Centre, priority 1996, dated 2006).
